# US5861477A (priority 1996, dated 1999)
# “Also recorded” adds a separate entry of the source. Like-named read-outs stand apart in the source and are kept apart here. Bridges are numbered along the chain shown (N, C = ends). Where no end group is shown, it is not given here.
# B1: Trypsin: native bovine trypsin (TPCK-trypsin, Worthington), positive control (protein, UniProt P00760 24-246, looked up)
# Serine protease 1: IVGGYTCGANTVPYQVSLNSGYHFCGGSLINSQWVVSAAHCYKSGIQVRLGEDNINVVEGNEQFISASKSIVHPSYNSNTLNNDIMLIKLKSAASLNSRVASISLPTSCASAGTQCLISGWGNTKSSGTSYPDVLKCLKAPILSDSSCKSAYPGQITSNMFCAGYLEGGKDSCQGDSGGPVVCSGKLQGIVSWGSGCAQKNKPGVYTKVCNYVSWIKQTIASN
# modifications: TPCK-treated
# notes: native bovine trypsin (TPCK-trypsin, Worthington), positive control
# Legend:
# TrPepz = TrPepz (synthetic cyclic peptide catalyst mimicking the active site of trypsin); conditions: up to 3 hrs
# [1] = Tryptic activity: hydrolysis of TAME; format: biochemical; conditions: for Km / kcat / kcat /Km: hydrolysis of TAME, pH 8.0 and 25° C.
# Procedure: Tryptic activity. Measurement of tryptic activity was done in 0.046M Tris-HCl buffer, pH 8.0, containing 0.0115M CaCl2 as described (Hummel, B. C. W. (1959), id) using TAME as the substrate. For the assays, 8.4×10^-4 μmoles of […] or 1.6 c 10^-3 μmoles of TrPepz were allowed to hydrolyze different amounts of substrate at 25° C. in a total reaction volume of 1.0 ml. […] Kinetic constants for hydrolysis of BTEE and TAME were determined from the linear plots of 1/initial velocity (Vi in μmoles/min) versus 1/substrate concentration as described (Lineweaver, H. and Burk, D. (1934) J. Amer. Chem. Soc. 56, 658).
# To TAME solutions (1 ml containing different amounts of substrate), an aliquot (10 μl) of TrPepz, or negative control peptide solutions (containing 1-10 μg/10 μl) was added, mixed immediately and the increase of absorbance at 247 nm was measured at 37° C. (or at room temperature).
# TrPepz solutions were always made immediately before use. Although TrPepz has no potential tryptic cleavage points, it lost activity on standing in solution at 4° C. […] TrPepz will not act on chromogenic substrates--it was inhibited by p-nitro analine (and probably is inhibited by other aromatic amines). After mixing TrPepz with substrate, there was a lag of 2-5 minutes (depending on pepzyme/substrate ratio) before any change in A247 was observed. In the early stages of the purification, the activity was always monitored over a period of several hours. Negative controls (containing unrelated peptides in amounts similar to those of TrPepz in the test samples) were also monitored at the same time because the background absorbance will increase and the test samples had to be corrected for this background. As the sample's purity improved, maximum A247 was achieved more quickly.
# Inhibition of Enzymatic Activity. The effects of inhibitors or disulfide bond reduction on enzymatic activities were done as described above except that the enzymes were pre-mixed (3 hrs, 25° C.) with 10 molar excess of inhibitor (or DTT) prior to addition to the substrate (140-150 molar excess relative to the catalyst). Activities were monitored spectrophotometrically as above and were compared to uninhibited controls.
# In addition, test were performed which compared the activity of the two proteases under differing temperature parameters.
# [2] = system: model peptides (SEQ ID NO:7-10); test: Action of TrPepz on model peptides; format: biochemical
# [3] = Chymotryptic activity: hydrolysis of BTEE; format: biochemical; conditions: in words
# Procedure: Chymotryptic activity. The catalytic activity of αCT and CHPepz was determined by hydrolysis of BTEE in 0.08M Tris buffer, pH 7.8 containing 0.01M CaCl2 as described (Hummel, B. C. W. (1959) Can. J. Biochem. Physiol. 37, 1393-1399). Assays were done at 25° C. using 8.06×10^-4 μmoles of αCT or 7.49×10^-4 μmoles of ChPepz and different substrate concentrations (from 3 to 6 mM) in a total reaction volume of 1.0 ml. The change of absorbance at 256 nm was monitored on a recording spectrophotometer against a reference cuvette containing 1 ml of the same concentration of BTEE, but without αCT or ChPepz.
# 1.0 ml of substrate (BTEE) was mixed with solutions (10 μl aliquots) of ChPepz, or negative control peptides (containing 1-10 μg/10 μl) or αCT and activity was monitored by increase in absorbance at 256 nm at 37° C. (or at room temperature).
# ChPepz solution was made in 10^-3 N HCl, since it will not digest itself in this solvent. Solutions of ChPepz were always made immediately before use. […] After mixing ChPepz with substrate (BTEE), there was typically a lag of 2-5 min (depending on pepzyme/substrate ratio) before any change in A256 was observed. However, in the early stages of the purification, the activity needed to be monitored over a period of several hours. It was important to ensure that negative controls (containing unrelated peptides in amounts similar to those of ChPepz in the test samples) were also monitored at the same time because the background absorbance will increase and the test samples had to be corrected for this background. As the sample's purity improves, maximum A256 was achieved more quickly. See, e.g., Atassi, M. Z. in Immunochemistry of Proteins, ed. […]
# Tryptic activity. […] Kinetic constants for hydrolysis of BTEE and TAME were determined from the linear plots of 1/initial velocity (Vi in μmoles/min) versus 1/substrate concentration as described (Lineweaver, H. and Burk, D. (1934) J. Amer. Chem. Soc. 56, 658).
# Inhibition of Enzymatic Activity. […] Activities were monitored spectrophotometrically as above and were compared to uninhibited controls. […]
# myoglobin and casein = test: Hydrolysis of proteins by enzymes or peptide enzyme catalysts (peptide maps); format: biochemical, sperm-whale (myoglobin), bovine (casein)
# Procedure: Hydrolysis of Proteins by Enzymes or Peptide Enzyme Catalysts. Hydrolyses were done at 37° C. on aliquots (200 μl) containing 1 mg of myoglobin (5.6×10-2 μmoles) or casein (4.2×10^-2 μmoles) in 0.1M triethylamine-acetic acid buffer, pH 8.0 with 51 μg of αCT (2.06×10^-3 μmoles) and 2.9 μg of ChPepz (1.1×10^-3 μmoles) for 31/2 hrs or with 49 μg trypsin (2.06×10^-3 μmoles) and 5.0 μg TrPepz (1.87×10^-3 μmoles) for 8 hrs. The samples were then acidified (to pH 3.0) with 0.1M HCl freeze-dried and redissolved in 100 μl of H2 O at pH 3.0, and the entire sample was applied as a single spot to Whatman No. 3MM paper and subjected, in the first dimension, to ascending chromatography in n-butanol-acetic acid-water (4:1:5, vol/vol) followed by high voltage electrophoresis (3000 volts, 55 min), in the second dimension, in pyridine-acetic acid-water (1:10:289, vol/vol), pH 3.65, as described (Atassi, M. Z. and Saplin, B. J. (1968) Biochemistry 7, 688-698). The papers were then dried, steamed and stained with 0.2% ninhydrin in ethanol and the color was allowed to develop at room temperature. The papers were photographed 48 hrs after staining.
# [4] = Loss of pepzyme activity on storage in solution and on freezing and thawing; format: physicochemical
# Procedure: ChPepz solution was made in 10^-3 N HCl, since it will not digest itself in this solvent. Solutions of ChPepz were always made immediately before use. […] After mixing ChPepz with substrate (BTEE), there was typically a lag of 2-5 min (depending on pepzyme/substrate ratio) before any change in A256 was observed. However, in the early stages of the purification, the activity needed to be monitored over a period of several hours. It was important to ensure that negative controls (containing unrelated peptides in amounts similar to those of ChPepz in the test samples) were also monitored at the same time because the background absorbance will increase and the test samples had to be corrected for this background. As the sample's purity improves, maximum A256 was achieved more quickly. See, e.g., Atassi, M. Z. in Immunochemistry of Proteins, ed. M. Z. Atassi, Vol. 2, pp. 77-176, Plenum, New York, N.Y. (1977); King, D. S., et al. Int. J. Pept. Prot. Res. 36: 255-266 (1990).
# TrPepz solutions were always made immediately before use. […] In the early stages of the purification, the activity was always monitored over a period of several hours. Negative controls (containing unrelated peptides in amounts similar to those of TrPepz in the test samples) were also monitored at the same time because the background absorbance will increase and the test samples had to be corrected for this background. […]
# [5] = TAME, pH 8.0 and 25° C., cited from earlier work
molecule,measurement,setting,value
DNYRGYSLG,cleaved bond,TrPepz,Arg-Gly
QLEPSTSSAVPLIGKG,cleaved bond,TrPepz,Lys-Gly
cyclo(-S-cystinyl-glycyl-tyrosyl-histidyl-phenylalanyl-glycyl-glycyl-seryl- aspartyl-glycyl-glutamyl-glycyl-seryl-aspartyl-glycyl-glycyl-valyl-seryl-tryptophanyl-glycyl-leucyl-glycyl-glycyl-aspartyl-glycyl-alanyl-alanyl-histidyl-cystinyl-S) (CGYHFGGSDGEGSDGGVSWGLGGDGAAHC; disulfide 1-29) [TrPepz],activity on TAME after reduction of the disulfide bond (cyclic structure),[1]; 10 molar excess of DTT,zero activity; also recorded: fully inactivated; also recorded: completely lost
same,activity on TAME in presence of TPCK,[1]; 10 molar excess of TPCK,the two curves superimposed; also recorded: not by TPCK; also recorded: not affected
same,activity on TAME in presence of BPTI,[1]; 10 molar excess of inhibitor,zero activity; also recorded: completely inhibited; also recorded: inhibited entirely
same,activity on TAME in presence of DIFP,[1]; 10 molar excess of inhibitor,zero activity; also recorded: fully inactivated; also recorded: inhibited entirely; also recorded: completely inhibited
same,activity on TAME in presence of PMSF,[1]; 10 molar excess of inhibitor,zero activity; also recorded: fully inactivated; also recorded: inhibited entirely; also recorded: completely inhibited
same,activity on TAME in presence of human α1 -antitrypsin,[1]; 10 molar excess of inhibitor,zero activity; also recorded: completely inhibited; also recorded: inhibited entirely
same,activity on TAME in presence of soybean trypsin inhibitor,[1]; 10 molar excess of inhibitor,completely inhibited; also recorded: inhibited entirely
same,% Activity of Native Enzyme at 35° C.,[1]; Temp. 10,7.4%
same,% Activity of Native Enzyme at 35° C.,[1]; Temp. 35,approx. 40%
same,% Activity of Native Enzyme at 35° C.,[1]; Temp. 48,approx. 50%
same,lag before any change in A247,"[1]; after mixing with substrate, depends on pepzyme/substrate ratio",2 to 5 min
same,Km,[1],2420 ± 90 µM
same,kcat,[1],85 ± 2.6 sec.^-1
same,kcat /Km,[1],35000 M⁻¹ s⁻¹
same,rate of TAME hydrolysis relative to the rate obtained with the enzyme itself,[1]; relative to trypsin,about 40%
same,inhibition by p-nitro analine,[1]; will not act on chromogenic substrates,inhibited
same,hydrolysis of the Lys-Gly bond of peptide SEQ ID NO:7,"[2]; 3 hrs, molar ratio of substrate/TrPepz, 1:60",over 95%
same,"cleavage of lysozyme sequences SEQ ID NO:8, 9, 10 at the C-bond of lysine and arginine",[2]; no other products,completely cleaved
same,hydrolytic activity on BTEE,[3],zero activity; also recorded: no effect; also recorded: not hydrolyzed; also recorded: not hydrolysed
same,"hydrolysis of myoglobin and casein, peptides compared with those of the respective enzyme","myoglobin and casein; 37° C., pH 8.0, 3 1/2 hrs (ChPepz) or 8 hrs (TrPepz)",essentially the same as the pattern of the respective protein obtained by tryptic hydrolysis
same,proteolytic activity in presence of DIFP,myoglobin and casein; protein substrates,completely inhibited
same,proteolytic activity in presence of PMSF,myoglobin and casein; protein substrates,completely inhibited
same,proteolytic activity in presence of TPCK,myoglobin and casein; protein substrates,no effect
same,"efficiency at hydrolyzing Lys-Lys, Lys-Lys-Lys, Arg-Lys and Lys-Arg bonds compared with trypsin",myoglobin and casein; yields of lysine and arginine in hydrolysates,more efficient than trypsin
same,freezing and thawing cycles to complete loss of activity,[4],5 cycles
same,time to complete loss of activity on storage in solution,[4]; 4° C.,two
B1,% Activity of Native Enzyme at 35° C.,[1]; Temp. 10,4.5%
same,% Activity of Native Enzyme at 35° C.,[1]; Temp. 35,100%
same,% Activity of Native Enzyme at 35° C.,[1]; Temp. 48,67%
same,Km,[1],2560 ± 160 µM
same,kcat,[1],221 ± 9.7 sec.^-1
same,kcat /Km,[1],86000 M⁻¹ s⁻¹
same,kcat,[1]; listed as trypsin,221 sec.^-1
same,hydrolytic activity on TAME,[1]; in words,hydrolyzes
same,Km,"[5]; Lorand et al. 1961, read-out: Km reported value",2760 µM
same,kcat reported value,[5]; Martin et al. 1959,187 s⁻¹
same,hydrolytic activity on BTEE,[3],zero activity; also recorded: does not hydrolyze
same,hydrolytic activity on BTEE,[3]; listed as trypsin,not hydrolysed
